Measurements taken from ChEMBL document CHEMBL3396948 (Bioorg Med Chem, 2015).
Activity calls are given as the source filed them. No cut-off for these calls is given here.

Tests used:
[1] = test system: Trypanosoma brucei brucei; experiment: Trypanocidal activity against drug-sensitive Trypanosoma brucei brucei Lab 110 EATRO assessed as inhibition of trypanosomes after 48 hrs; type: functional, organism-based
Saccharomyces cerevisiae = experiment: Inhibition of yeast glutathione reductase assessed as reduction of glutathione disulfide up to 250 uM by spectrophotometrically
Trypanothione reductase = Trypanothione reductase (Trypanosoma cruzi, UniProt P28593); experiment: Inhibition of Trypanosoma cruzi trypanothione reductase assessed as reduction of trypanothione disulfide by spectrophotometrically
Mus musculus [2] = experiment: Toxicity in drug-sensitive Trypanosoma brucei brucei Lab 110 EATRO infected in female Swiss-Webster mouse assessed as death at 50 mg/kg, ip once daily for 3 days relative to control; type: organism-based; set-up: dose 50 mg/kg, route intraperitoneal; conditions: in vivo, 72 h
[3] = test system: Trypanosoma brucei rhodesiense; experiment: Trypanocidal activity against pentamidine and melarsoprol-resistant Trypanosoma brucei rhodesiense K 243-As-10-3 assessed as inhibition of trypanosomes after 48 hrs; type: functional, organism-based; conditions: K 243-As-10-3, 48 h
[4] = test system: Trypanosoma brucei brucei; experiment: In vivo trypanocidal activity against drug-sensitive Trypanosoma brucei brucei Lab 110 EATRO infected in female Swiss-Webster mouse assessed as life prolongation at 50 mg/kg, ip administered in 2 daily doses for 3 days relative to control; type: functional, organism-based; set-up: dose 50 mg/kg
[5] = test system: Trypanosoma brucei rhodesiense; experiment: Trypanocidal activity against clinical isolate Trypanosoma brucei rhodesiense KETRI 243 assessed as inhibition of trypanosomes after 48 hrs; type: functional, organism-based; conditions: KETRI 243, 48 h
[6] = test system: Trypanosoma brucei rhodesiense; experiment: Trypanocidal activity against clinical isolate Trypanosoma brucei rhodesiense KETRI 269 assessed as inhibition of trypanosomes after 48 hrs; type: functional, organism-based; conditions: KETRI 269, 48 h
Trypanosoma brucei = experiment: Trypanocidal activity against bloodstream form of Trypanosoma brucei assessed as inhibition of trypanosomes after 48 hrs; type: functional, organism-based
Mus musculus [7] = experiment: Toxicity in drug-sensitive Trypanosoma brucei brucei Lab 110 EATRO infected in female Swiss-Webster mouse assessed as death at 1 to 25 mg/kg, ip once daily for 3 days relative to control; type: organism-based; set-up: dose 1-25 mg/kg, route intraperitoneal; conditions: in vivo, 72 h
[8] = test system: Trypanosoma brucei brucei; experiment: In vivo trypanocidal activity against drug-sensitive Trypanosoma brucei brucei Lab 110 EATRO infected in female Swiss-Webster mouse assessed as life prolongation at 1 to 25 mg/kg, ip once daily for 3 days relative to control; type: functional, organism-based

Sequence of Trypanothione reductase (P28593 whole entry): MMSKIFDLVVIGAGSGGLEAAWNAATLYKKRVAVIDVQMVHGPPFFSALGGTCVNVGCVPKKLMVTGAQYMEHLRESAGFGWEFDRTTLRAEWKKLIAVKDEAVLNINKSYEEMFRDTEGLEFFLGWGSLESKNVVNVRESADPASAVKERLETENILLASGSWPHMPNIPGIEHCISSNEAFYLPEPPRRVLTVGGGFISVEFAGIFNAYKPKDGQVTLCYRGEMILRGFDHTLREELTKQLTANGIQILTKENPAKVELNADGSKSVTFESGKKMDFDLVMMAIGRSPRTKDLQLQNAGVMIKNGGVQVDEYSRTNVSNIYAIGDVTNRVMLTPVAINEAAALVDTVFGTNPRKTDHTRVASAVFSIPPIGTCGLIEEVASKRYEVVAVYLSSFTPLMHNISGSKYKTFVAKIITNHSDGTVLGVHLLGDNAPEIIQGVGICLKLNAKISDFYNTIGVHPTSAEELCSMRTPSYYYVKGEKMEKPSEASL

Compound | inhibition (Saccharomyces cerevisiae) | Ki (Trypanothione reductase) [µM] | IC50 [1] [µM] | Activity (Mus musculus [2]) | IC50 [3] [µM] | Activity [4] | IC50 [5] [µM] | IC50 [6] [µM] | EC50 (Trypanosoma brucei) [µM] | Activity (Mus musculus [7]) | Activity [8]
NCCCN(CCCN)C1c2ccccc2CCc2ccccc21 | inactive | 7.62 |  |  |  |  |  |  |  |  | 
NCCCN(CCCCN(CCCN)C1c2ccccc2CCc2ccccc21)C1c2ccccc2CCc2ccccc21 | inactive | 0.255 | 2.55 | Toxic | 22 | Active | 1.5 | 1.69 |  |  | 
CN(C)CCCN1c2ccccc2CCc2ccc(Cl)cc21 [CLOMIPRAMINE] | inactive |  |  |  |  |  |  |  | 5.05 |  | 
NCCCCN(CCCN)C1c2ccccc2CCc2ccccc21 | inactive | 4 | 0.62 |  | 8.3 |  | 4.5 | 4.3 |  | Toxic | inactive

The next lines start with results.

inhibition (Saccharomyces cerevisiae) | Ki (Trypanothione reductase) [µM] | Compound | IC50 [1] [µM] | Activity (Mus musculus [2]) | IC50 [3] [µM] | Activity [4] | IC50 [5] [µM] | IC50 [6] [µM] | EC50 (Trypanosoma brucei) [µM] | Activity (Mus musculus [7]) | Activity [8]
inactive | 81.6 | CN(C)CCCNC1c2ccccc2CCc2ccccc21 | 1.38 |  |  |  |  |  |  |  | 
inactive | 136 | CN(C)CCNC1c2ccccc2CCc2ccccc21 | 1.68 |  |  |  | 2 |  |  |  | 
inactive | 27.9 | NCCN(CCN)C1c2ccccc2CCc2ccccc21 | 2.8 |  |  |  |  |  |  |  | 
